Data: ChEMBL document CHEMBL5532652, “Design and synthesis of pterostilbene derivatives bearing triazole moiety that might treat DSS-induced colitis in mice through modulation of NF-κB/MAPK signaling pathways” (Eur J Med Chem, 2024)
Activity calls are given as the source filed them. The rule behind the calls is not given here.

Key:
[1] = Cytotoxicity against mouse RAW264.7 cells assessed as reduction in cell viability at 20 uM incubated for 24 hrs in presence of LPS by MTT assay; format: toxicity, cell-based
RAW264.7 [2] = assay: Anti-inflammatory activity in LPS-stimulated mouse RAW264.7 cells assessed as inhibition of IkappaB phosphorylation at 0.5 to 2 uM preincubated with compound for 1 hr followed by LPS stimulation and measured after 30 mins by Western blot analysis; format: functional, cell-based; details: dose 0.5-2 µM, time 1.5 hrs
RAW264.7 [3] = assay: Anti-inflammatory activity in LPS-stimulated mouse RAW264.7 cells assessed as inhibition of p65 phosphorylation at 0.5 to 2 uM preincubated with compound for 1 hr followed by LPS stimulation and measured after 30 mins by Western blot analysis; format: functional, cell-based; details: dose 0.5-2 µM, time 1.5 hrs
RAW264.7 [4] = assay: Anti-inflammatory activity in LPS-stimulated mouse RAW264.7 cells assessed as inhibition of ERK phosphorylation preincubated with compound for 1 hr followed by LPS stimulation and measured after 30 mins by Western blot analysis; format: functional, cell-based; details: dose 0.5-2 µM, time 1.5 hrs
Mus musculus = assay: Anti-inflammatory activity against DSS-induced acute colitis C57BL/6J mouse model assessed as decrease in colon length at 10 to 20 mg/kg, po measured for 7 days; format: functional, organism-based; details: dose 10-20 mg/kg, time 7.0 day
[5] = Acute toxicity in female C57BL/6 mouse assessed as effect on body weight gain at 1000 to 2000 mg/kg, po measured for 14 days; format: organism-based; details: in vivo, 336 h, dose 1000-2000 mg/kg, time 14 day
[6] = Acute toxicity in female C57BL/6 mouse assessed as lethargy at 1000 to 2000 mg/kg, po measured for 14 days; format: organism-based; details: in vivo, 336 h, dose 1000-2000 mg/kg, time 14 day
[7] = Acute toxicity in female C57BL/6 mouse assessed as effect on fur laxity at 1000 to 2000 mg/kg, po measured for 14 days; format: organism-based; details: in vivo, 336 h, dose 1000-2000 mg/kg, time 14 day
[8] = Acute toxicity in C57BL/6 mouse assessed as heart damage at 1000 mg/kg, po measured for 14 days; format: organism-based; details: in vivo, 336 h, time 14 day
[9] = Acute toxicity in C57BL/6 mouse assessed as liver damage at 1000 mg/kg, po measured for 14 days; format: organism-based; details: in vivo, 336 h, time 14 day

With `C=CCOc1ccc(/C=C/c2cc(OC)cc(OC)c2-c2cnnn2C(=O)NCCCl)cc1` the IC50 at 24 h [1] was > 50 µM, the Activity (RAW264.7 [2]) was “Active” and the Activity (RAW264.7 [3]) was “Active”. The Activity (RAW264.7 [4]) was “Dose-Dependent Effect”, the Activity (Mus musculus) was “Active” and the Activity [5] was “Non-Toxic”. For the same compound, the Activity [6] was “Non-Toxic”, the Activity [7] was “Non-Toxic” and the Activity [8] was “Non-Toxic”. For the same compound, the Activity [9] was “Non-Toxic”.
